Tests used:
[1] = target: FAK (focal adhesion kinase) FERM domain (Homo sapiens, UniProt Q05397); assay type: binding
[2] = target: Recombinant HER2-ICD (Intracellular Domain) (human, UniProt P04626 676-1255)

Question: With Cc1nc(SC(C)C(=O)Nc2ccc3[nH]c(=O)[nH]c3c2)n(C2CCCC2)c1C (racemic) [VS4, (rac)-2-((1-cyclopentyl-4,5-dimethyl-1H-imidazol-2-yl)thio)-N-(2-oxo-2,3-dihydro-1H-benzo[d]imidazol-5-yl)propanamide] as the molecule, how does the IC50 [1] read?
Answer: 170 nM

Question: Which IC50 [1] does the source give for CC(Oc1ccc(C(=O)NCCN2CCN(C)CC2c2ccccc2)cn1)c1ccccc1 (racemic) [VS14, (rac)-N-(2-(4-methyl-2-phenylpiperazin-1-yl)ethyl)-6-(1-phenylethoxy)nicotinamide] here?
Answer: 187 nM

B1: GST-FAK-NT (FERM) (domain or fragment, UniProt Q05397 35-355, looked up)
chain: RVLKVFHYFESNSEPTTWASIIRHGDATDVRGIIQKIVDSHKVKHVACYGFRLSHLRSEEVHWLHVDMGVSSVREKYELAHPPEEWKYELRIRYLPKGFLNQFTEDKPTLNFFYQQVKSDYMLEIADQVDQEIALKLGCLEIRRSYWEMRGNALEKKSNYEVLEKDVGLKRFFPKSLLDSVKAKTLRKLIQQTFRQFANLNREESILKFFEILSPVYRFDKECFKCALGSSWIISVELAIGPEEGISYLTDKGCNPTHLADFTQVQTIQYSNSEDKDRKGMLQLKIAGAPEPLTVTAPSLTIAENMADLIDGYCRLVNGTS
Question: With B1 as the molecule, how does the Kd [2] read?
Answer: 571 nM

Source: publication PMC9590610 (Chemical biology & drug design, 2020)
